Molecules are shown by their SMILES. Counter-ions that a name gives are not always drawn.

Assay [1] addresses T1, MerTK (Homo sapiens, UniProt Q12866).
T1 construct: endogenous in cells; host or cells: Jurkat cells
T1 sequence (Q12866 21-999): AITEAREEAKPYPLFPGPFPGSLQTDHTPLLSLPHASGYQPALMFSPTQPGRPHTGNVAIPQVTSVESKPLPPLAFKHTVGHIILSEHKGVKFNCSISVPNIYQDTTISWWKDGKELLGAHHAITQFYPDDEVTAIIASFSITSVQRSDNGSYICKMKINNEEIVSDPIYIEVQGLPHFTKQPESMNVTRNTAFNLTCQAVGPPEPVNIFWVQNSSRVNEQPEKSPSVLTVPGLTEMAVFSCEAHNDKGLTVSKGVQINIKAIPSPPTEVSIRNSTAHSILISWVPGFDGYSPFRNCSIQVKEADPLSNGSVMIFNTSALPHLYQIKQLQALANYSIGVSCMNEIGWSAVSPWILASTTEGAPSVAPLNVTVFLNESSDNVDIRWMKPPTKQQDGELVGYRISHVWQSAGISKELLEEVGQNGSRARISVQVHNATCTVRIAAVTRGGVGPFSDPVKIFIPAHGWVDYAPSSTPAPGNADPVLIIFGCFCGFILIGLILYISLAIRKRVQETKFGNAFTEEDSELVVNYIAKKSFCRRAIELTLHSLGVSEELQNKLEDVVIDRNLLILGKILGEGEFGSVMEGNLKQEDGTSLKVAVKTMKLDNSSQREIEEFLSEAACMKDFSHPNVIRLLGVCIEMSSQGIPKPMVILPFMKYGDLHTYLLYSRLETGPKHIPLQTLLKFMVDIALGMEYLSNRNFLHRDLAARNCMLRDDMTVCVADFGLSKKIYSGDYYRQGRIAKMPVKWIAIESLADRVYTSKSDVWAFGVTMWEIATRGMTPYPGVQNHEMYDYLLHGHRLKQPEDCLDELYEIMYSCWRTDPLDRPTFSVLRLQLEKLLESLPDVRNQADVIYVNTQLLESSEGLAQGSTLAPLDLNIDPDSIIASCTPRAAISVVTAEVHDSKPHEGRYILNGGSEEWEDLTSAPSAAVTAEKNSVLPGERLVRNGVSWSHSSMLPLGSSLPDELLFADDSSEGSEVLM
Description: MerTk degradation in Jurkat cells (Western blot). Format: cell-based. The following applies: Jurkat, 4 h, 0.001-1 μM, 4 hour-incubation at 37° C., read-out: Jurkat Max % MerTK Degradation. The method, boiled down: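 MerTK degradation was read by near-infrared Western blot, normalized to actin, in BCA-quantified lysates of Jurkat cells exposed to 0.001-1 μM compound for 4 h at 37 °C.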
A general note: In western blotting, separated proteins are transferred to a membrane and probed.

Assay [2] deals with T2, MerTK (Mus musculus, UniProt Q60805).
T2 construct: endogenous in cells; host or cells: RAW264 cells
T2 sequence (Q60805 19-994): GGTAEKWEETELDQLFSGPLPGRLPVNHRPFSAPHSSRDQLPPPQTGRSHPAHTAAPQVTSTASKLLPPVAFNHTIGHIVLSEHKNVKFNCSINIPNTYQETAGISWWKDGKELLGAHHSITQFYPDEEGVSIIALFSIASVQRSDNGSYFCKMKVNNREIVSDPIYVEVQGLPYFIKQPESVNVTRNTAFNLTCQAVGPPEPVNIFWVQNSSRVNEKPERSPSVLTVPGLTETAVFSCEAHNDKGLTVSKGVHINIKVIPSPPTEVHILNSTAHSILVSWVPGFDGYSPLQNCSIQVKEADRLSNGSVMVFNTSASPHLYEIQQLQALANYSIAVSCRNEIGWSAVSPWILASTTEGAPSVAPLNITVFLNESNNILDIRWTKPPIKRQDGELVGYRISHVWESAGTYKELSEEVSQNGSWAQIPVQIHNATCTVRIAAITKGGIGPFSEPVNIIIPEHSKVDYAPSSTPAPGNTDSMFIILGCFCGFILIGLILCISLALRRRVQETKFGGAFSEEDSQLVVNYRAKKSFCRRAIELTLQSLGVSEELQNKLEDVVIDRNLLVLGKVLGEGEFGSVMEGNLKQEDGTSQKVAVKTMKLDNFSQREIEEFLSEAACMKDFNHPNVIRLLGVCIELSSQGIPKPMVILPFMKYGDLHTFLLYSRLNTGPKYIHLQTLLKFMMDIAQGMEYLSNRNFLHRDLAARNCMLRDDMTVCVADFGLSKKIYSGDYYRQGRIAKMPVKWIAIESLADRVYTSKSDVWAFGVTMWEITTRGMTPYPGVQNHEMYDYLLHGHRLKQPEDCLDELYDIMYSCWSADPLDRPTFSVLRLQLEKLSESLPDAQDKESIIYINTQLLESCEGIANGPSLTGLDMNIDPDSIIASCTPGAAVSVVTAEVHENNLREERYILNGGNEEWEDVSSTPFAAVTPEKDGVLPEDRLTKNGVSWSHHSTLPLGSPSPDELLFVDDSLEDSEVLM
Nature of the assay: MerTK degradation in RAW264 cells (Western blot). It counts as cell-based. As to conditions: RAW264.7, 0.001-1 μM, 4 hour-incubation at 37° C., read-out: RAW264 Max % MerTK Degradation. As for the experimental part: Compounds were reconstituted in DMSO to make 10 mM stock solutions. RAW264 cells were maintained in DMEM medium containing 10% FBS. Cells were seeded into 6-well plates with 2×10^6 cells per well. 2 μL of diluted compounds were added to cells to the final concentration of 0.001-1 μM. After a 4 hour-incubation at 37° C., cells were washed with DPBS (1×) once. Then RIPA lysis buffer with Halt Protease and Phosphatase Inhibitor Cocktail was added directly to the cells and cells were then incubated on ice for 10 min, then lysate was harvested into 1.5 mL Eppendorf tubes and centrifuged at 14,000 rpm for 10 min at 4° C. and the supernatants were collected for Western blots.
The protein concentration of cell lysates was quantified with Pierce™ BCA Protein Assay Kit. […] BCA working reagents were prepared by mixing BCA reagent A with reagent B in 50: 1 ratio. 200 μL of the BCA working reagents were added to 25 μL of BCA standard or cell lysates in microplate, and mixed thoroughly on a plate shaker for 30 seconds. After incubation at 37° C. for 30 min, the absorbance of samples at 562 nm were measured with EnVision Plate Reader.
Protein lysates were prepared in NuPAGE™ LDS sample buffer and NuPAGE™ sample reducing agent, and incubated at 95° C. for 5 min. […] The proteins were transferred to low fluorescence PVDF membranes using the Trans-Blot Turbo Transfer System. Membranes were then blocked in Odyssey blocking buffer at RT for 1 h followed by primary incubation at 4° C. overnight. The primary antibodies were MerTK goat polyclonal antibody and actin mouse monoclonal antibody. Membranes were washed three times with TBST (1×), and then incubated with IR Dye 800 CW Donkey anti-goat and IR Dye 700 CW Goat anti-mouse secondary antibodies in 1:10,000 dilution at RT for 1 h. The Western blot images were obtained using Odyssey Imaging System.

For `CCCCNc1ncc(-c2ccc(CN3CCN(CCOCCOCCOCCOCCNc4cccc5c4C(=O)N(C4CCC(=O)NC4=O)C5=O)CC3)cn2)c(N[C@H]2CC[C@H](O)CC2)n1` (stereo partly drawn) [I-25, 4-[15-[4-([6-[2-(Butylamino)-4-[[trans-4-hydroxycyclohexyl]amino]pyrimidin-5-yl]pyridin-3-yl]methyl)piperazin-1-yl]-4,7,10,13-tetraoxa-1-azapentadecan-1-yl]-2-(2,6-dioxopiperidin-3-yl)-2,3-dihydro-1H-isoindole-1,3-dione], the Dmax on MerTK [1] and on MerTK [2] was greater than 50% throughout.
For `Cc1ccc(CNc2ncc3c(-c4ccc(CN5CCN(CCOCCOCCOCCOCCNc6cccc7c6C(=O)N(C6CCC(=O)NC6=O)C7=O)CC5)cc4)cn([C@H]4CC[C@H](O)CC4)c3n2)cc1` (stereo partly drawn) [I-26, 2-(2,6-Dioxopiperidin-3-yl)-4-[15-(4-[[4-(2-[[(4-methylphenyl)methyl]amino]-7-[trans-4-hydroxycyclohexyl]-7H-pyrrolo[2,3-d]pyrimidin-5-yl)phenyl]methyl]piperazin-1-yl)-4,7,10,13-tetraoxa-1-azapentadecan-1-yl]-2,3-dihydro-1H-isoindole-1,3-dione formate], the Dmax at MerTK [1] and at MerTK [2] was greater than 50% each time.
`CCCCNc1ncc2c(-c3ccc(S(=O)(=O)N4CCN(C(=O)CCCCCCCCCCC(=O)N[C@H](C(=O)N5C[C@H](O)C[C@H]5C(=O)NCc5ccc(-c6scnc6C)cc5)C(C)(C)C)CC4)cc3)nn([C@H]3CC[C@H](O)CC3)c2n1` [I-27, (2S,4R)-1-((S)-2-(12-(4-((4-(6-(Butylamino)-1-(trans-4-hydroxycyclohexyl)-1H-pyrazolo[3,4-d]pyrimidin-3-yl)phenyl)sulfonyl)piperazin-1-yl)-12-oxododecanamido)-3,3-dimethylbutanoyl)-4-hydroxy-N-(4-(4-methylthiazol-5-yl)benzyl)pyrrolidine-2-carboxamide]: the Dmax at MerTK [1] and at MerTK [2] was greater than 50% throughout.
For `CCCCNc1ncc2c(-c3ccc(S(=O)(=O)N4CCN(C(=O)CCCCCCCCCCNC(=O)COc5cccc6c5C(=O)N(C5CCC(=O)NC5=O)C6=O)CC4)cc3)nn([C@H]3CC[C@H](O)CC3)c2n1` (stereo partly drawn) [I-28, N-(11-(4-((4-(6-(Butylamino)-1-(trans-4-hydroxycyclohexyl)-1H-pyrazolo[3,4-d]pyrimidin-3-yl)phenyl)sulfonyl)piperazin-1-yl)-11-oxoundecyl)-2-((2-(2,6-dioxopiperidin-3-yl)-1,3-dioxoisoindolin-4-yl)oxy)acetamide], the Dmax on MerTK [1] and at MerTK [2] was greater than 50% throughout.
In the case of `CCCCNc1ncc2c(-c3ccc(S(=O)(=O)N4CCN(C(=O)NCCCOCCCOCCCc5cccc6c5n(C)c(=O)n6C5CCC(=O)NC5=O)CC4)cc3)nn([C@H]3CC[C@H](O)CC3)c2n1` (stereo partly drawn) [I-29, 4-((4-(6-(Butylamino)-1-(trans-4-hydroxycyclohexyl)-1H-pyrazolo[3,4-d]pyrimidin-3-yl)phenyl)sulfonyl)-N-(3-(3-(3-(1-(2,6-dioxopiperidin-3-yl)-3-methyl-2-oxo-2,3-dihydro-1H-benzo[d]imidazol-4-yl)propoxy)propoxy)propyl)piperazine-1-carboxamide], the Dmax at MerTK [1] and at MerTK [2] was greater than 50% in each case.
On to `CCCCNc1ncc2c(-c3ccc(CN4CCN(CCOCCOCCOCCOCCNc5cccc6c5n(C)c(=O)n6C5CCC(=O)NC5=O)CC4)cc3)nn([C@H]3CC[C@H](O)CC3)c2n1` (stereo partly drawn) [I-37, trans-3-(4-[15-[4-([4-[6-(butylamino)-1-[4-hydroxycyclohexyl]-1H-pyrazolo[3,4-d]pyrimidin-3-yl]phenyl]methyl)piperazin-1-yl]-4,7,10,13-tetraoxa-1-azapentadecan-1-yl]-3-methyl-2-oxo-2,3-dihydro-1H-1,3-benzodiazol-1-yl)piperidine-2,6-dione], for which the Dmax at MerTK [1] and at MerTK [2] was greater than 50% in each case.
Regarding `CCCCNc1ncc2c(-c3ccc(CN4CCN(CCOCCOCCOCCOCCCc5ccc6c(c5)n(C)c(=O)n6C5CCC(=O)NC5=O)CC4)cc3)nn([C@H]3CC[C@H](O)CC3)c2n1` (stereo partly drawn) [I-38, trans-3-(5-[1-[4-([4-[6-(butylamino)-1-[4-hydroxycyclohexyl]-1H-pyrazolo[3,4-d]pyrimidin-3-yl]phenyl]methyl)piperazin-1-yl]-3,6,9,12-tetraoxapentadecan-15-yl]-3-methyl-2-oxo-2,3-dihydro-1H-1,3-benzodiazol-1-yl)piperidine-2,6-dione], the Dmax at MerTK [1] and on MerTK [2] was greater than 50% throughout.
`CCCCNc1ncc2c(-c3ccc(CN4CCN(CCOCCOCCOCCCc5ccc6c(c5)n(C)c(=O)n6C5CCC(=O)NC5=O)CC4)cc3)cn([C@H]3CC[C@H](O)CC3)c2n1` (stereo partly drawn) [I-40, 3-(5-[3-[2-(2-[2-[4-([4-[2-(Butylamino)-7-[trans-4-hydroxycyclohexyl]-7H-pyrrolo[2,3-d]pyrimidin-5-yl]phenyl]methyl)piperazin-1-yl]ethoxy]ethoxy)ethoxy]propyl]-3-methyl-2-oxo-2,3-dihydro-1H-1,3-benzodiazol-1-yl)piperidine-2,6-dione formic acid]: the Dmax at MerTK [1] and on MerTK [2] was greater than 50% each time.

The values are drawn from patent US20260042762A1 (Kymera Therapeutics, Inc., priority 2018, published 2026).
